Structures can show the parent of a compound that is named as a salt.
How the values were obtained:
[1] = biological target: T1, 5-hydroxytryptamine receptor 2C (Rattus norvegicus, UniProt P08909)
T1 sequence (P08909 whole entry): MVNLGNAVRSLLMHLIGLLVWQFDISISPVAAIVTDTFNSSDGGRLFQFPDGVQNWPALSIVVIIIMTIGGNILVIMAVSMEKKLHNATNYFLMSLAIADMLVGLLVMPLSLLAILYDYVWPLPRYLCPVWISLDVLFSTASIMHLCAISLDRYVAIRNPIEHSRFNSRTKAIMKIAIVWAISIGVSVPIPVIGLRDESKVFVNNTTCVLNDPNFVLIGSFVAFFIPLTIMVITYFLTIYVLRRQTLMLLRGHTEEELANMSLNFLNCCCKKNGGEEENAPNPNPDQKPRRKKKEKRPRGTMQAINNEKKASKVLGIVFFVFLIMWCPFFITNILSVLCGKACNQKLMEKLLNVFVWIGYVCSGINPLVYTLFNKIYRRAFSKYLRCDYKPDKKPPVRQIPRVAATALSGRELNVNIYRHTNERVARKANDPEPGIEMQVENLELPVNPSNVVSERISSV

[2] = biological target: 5-hydroxytryptamine receptor 2A (Rattus norvegicus, UniProt P14842)
Chain of 5-hydroxytryptamine receptor 2A (P14842 whole entry): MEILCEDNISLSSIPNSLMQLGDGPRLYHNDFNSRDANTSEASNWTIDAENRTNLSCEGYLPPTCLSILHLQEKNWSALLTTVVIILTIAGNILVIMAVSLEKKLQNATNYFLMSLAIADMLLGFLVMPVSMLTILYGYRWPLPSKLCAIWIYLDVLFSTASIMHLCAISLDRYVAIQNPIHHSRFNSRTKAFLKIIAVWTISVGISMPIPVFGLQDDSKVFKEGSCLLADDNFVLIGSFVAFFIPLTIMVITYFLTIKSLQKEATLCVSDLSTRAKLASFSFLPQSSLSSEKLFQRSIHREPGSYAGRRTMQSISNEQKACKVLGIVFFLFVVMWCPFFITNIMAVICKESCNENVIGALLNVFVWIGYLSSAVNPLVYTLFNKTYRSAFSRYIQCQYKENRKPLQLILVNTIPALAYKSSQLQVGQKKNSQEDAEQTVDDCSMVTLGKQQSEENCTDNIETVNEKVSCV

| SMILES | Ki [1] [nM] | Ki [2] [nM] |
| --- | --- | --- |
| CC1CCN(CCCC(=O)c2ccc(F)cc2)CC1 [CAS_3575-80-2] | 1340 | – |
| CN1CCc2cc(Cl)c(O)cc2[C@@H](c2ccccc2)C1 [SCH 23390,R(+)] | 13.4 | 19.9 |
| O=C1CC2(CCCC2)CC(=O)N1CCCCN1CCN(c2nsc3ccccc23)CC1 [TIOSPERONE] | 9.7 | – |
| CN1CCN(C2=Nc3cscc3C(=CC#N)c3cscc32)CC1 [NSC_3086153] | 62 | 39.8 |
| O=c1[nH]c2ccccc2n1C1CCN(CCCC(c2ccc(F)cc2)c2ccc(F)cc2)CC1 [1-(1-(4,4-bis(4-fluorophenyl)butyl)piperidin-4-yl)-1H-benzo[d]imidazol-2(3H)-one] | > 10000 | 7.9 |
| CN1CCN(C2=Cc3cc(Cl)ccc3C(=CC#N)c3ccccc32)CC1 [CAS_79781-95-6] | 23 | 0.79 |
| CCNC(=O)N1CCN(CCCC(c2ccc(F)cc2)c2ccc(F)cc2)CC1 | 1150 | – |
| O=c1[nH]c2ccccc2n1CCCN1CCC(n2c(=O)[nH]c3cc(Cl)ccc32)CC1 | > 10000 | 294 |
| OCCN1CCN(CC/C=C2/c3ccccc3Sc3ccc(C(F)(F)F)cc32)CC1 [(cis) 2-{4-[3-(2-Trifluoromethyl-thioxanthen-9-ylidene)-propyl]-piperazin-1-yl}-ethanol(Flupentixol)] | 102 | 2 |
| CN1CCCCC1CCN1c2ccccc2Sc2ccc([S+](C)[O-])cc21 (stereo unspecified) | 79 | 6.3 |
| CCN(CC)CCNC(=O)c1cc(Cl)c(N)cc1OC [4-amino-5-chloro-N-[2-(diethylamino)ethyl]-2-methoxy-benzamide;hydrochloride] | > 10000 | – |
| CN1CCN(CC/C=C2/c3ccccc3Sc3ccc(S(=O)(=O)N(C)C)cc32)CC1 [MLS000028463] | 1550 | – |
| c1ccc2nc(N3CCNCC3)ccc2c1 [2-Piperazin-1-yl-quinoline (Quipazine)] | 336 | 613 |
| CN1CCN(C2=Nc3cc(F)ccc3Cc3ccccc32)CC1 | 18.2 | 7.9 |
| O=C(c1ccc(F)cc1)C1CCN(CCn2c(=O)[nH]c3ccccc3c2=O)CC1 [3-(2-{4-[(4-fluorophenyl)carbonyl]piperidin-1-yl}ethyl)-1,2,3,4-tetrahydroquinazoline-2,4-dione] | 28.5 | – |
| Clc1cncc(N2CCNCC2)n1 [L-630,571] | 255 | > 10000 |

Source: BindingDB's records for PubMed 1347569 (Stanford University, 1992)
